In patent US20230322721A1 (OSLO UNIVERSITETSSYKEHUS HF, priority 2020, published 2023):
Read-outs that look alike come from different tables or passages of the source.

Experiments:
HEK293 = test: Cellular IC50 HEK293; format: cell-based
Text: (§1) XLfit (idbs) was used to determine the IC50-values in inhibition experiments. The following formula was chosen to fit the data points (Langmuir Binding Isotherm): fit=((A+(B*x))+(((C−B)*(1−exp((−1*D)*x)))/D)), res=(y−fit).

[1] = Metabolic stability in mouse liver microsomes (MLM); format: in vitro ADME
Protocol: (§2) Metabolic stability was investigated in mouse liver microsomes (MLM) and in human liver microsomes (HLM): […] Incubations were performed at 37° C. Control incubations with reference substances were included for each experiment. […] After the last time point, the quench plates were mixed thoroughly and centrifuged for 15 minutes at 3700 rpm and 10° C. (Eppendorf 5804R). The supernatant was transferred to new 96 well plates and subjected to LCMS analysis. The disappearance of the parent compound was determined.

TNKS2 = TNKS2 (Homo sapiens (Human), UniProt Q9H2K2); test: Biochemical IC50 TNKS2
Text: as §1

[2] = Metabolic stability in human liver microsomes (HLM); format: in vitro ADME
Protocol: as §2

[3] = Homo sapiens, HEK293; read-out: Cellular IC50 HEK 293
[4] = Homo sapiens, HEK293; read-out: Cellular IC50 HEK293
[5] = Homo sapiens, HEK293, read-out: Cellular IC50 HEK 293
[6] = Homo sapiens, HEK293, read-out: Cellular IC50 HEK293
[7] = 1 μM compound, 0.5 mg/ml microsomal protein, 37° C.
[8] = read-out: Biochemical IC50 TNKS2
[9] = pH 7.4, 1 μM compound, 0.5 mg/ml microsomal protein, 37° C.

TNKS2, sequence (Q9H2K2 whole entry): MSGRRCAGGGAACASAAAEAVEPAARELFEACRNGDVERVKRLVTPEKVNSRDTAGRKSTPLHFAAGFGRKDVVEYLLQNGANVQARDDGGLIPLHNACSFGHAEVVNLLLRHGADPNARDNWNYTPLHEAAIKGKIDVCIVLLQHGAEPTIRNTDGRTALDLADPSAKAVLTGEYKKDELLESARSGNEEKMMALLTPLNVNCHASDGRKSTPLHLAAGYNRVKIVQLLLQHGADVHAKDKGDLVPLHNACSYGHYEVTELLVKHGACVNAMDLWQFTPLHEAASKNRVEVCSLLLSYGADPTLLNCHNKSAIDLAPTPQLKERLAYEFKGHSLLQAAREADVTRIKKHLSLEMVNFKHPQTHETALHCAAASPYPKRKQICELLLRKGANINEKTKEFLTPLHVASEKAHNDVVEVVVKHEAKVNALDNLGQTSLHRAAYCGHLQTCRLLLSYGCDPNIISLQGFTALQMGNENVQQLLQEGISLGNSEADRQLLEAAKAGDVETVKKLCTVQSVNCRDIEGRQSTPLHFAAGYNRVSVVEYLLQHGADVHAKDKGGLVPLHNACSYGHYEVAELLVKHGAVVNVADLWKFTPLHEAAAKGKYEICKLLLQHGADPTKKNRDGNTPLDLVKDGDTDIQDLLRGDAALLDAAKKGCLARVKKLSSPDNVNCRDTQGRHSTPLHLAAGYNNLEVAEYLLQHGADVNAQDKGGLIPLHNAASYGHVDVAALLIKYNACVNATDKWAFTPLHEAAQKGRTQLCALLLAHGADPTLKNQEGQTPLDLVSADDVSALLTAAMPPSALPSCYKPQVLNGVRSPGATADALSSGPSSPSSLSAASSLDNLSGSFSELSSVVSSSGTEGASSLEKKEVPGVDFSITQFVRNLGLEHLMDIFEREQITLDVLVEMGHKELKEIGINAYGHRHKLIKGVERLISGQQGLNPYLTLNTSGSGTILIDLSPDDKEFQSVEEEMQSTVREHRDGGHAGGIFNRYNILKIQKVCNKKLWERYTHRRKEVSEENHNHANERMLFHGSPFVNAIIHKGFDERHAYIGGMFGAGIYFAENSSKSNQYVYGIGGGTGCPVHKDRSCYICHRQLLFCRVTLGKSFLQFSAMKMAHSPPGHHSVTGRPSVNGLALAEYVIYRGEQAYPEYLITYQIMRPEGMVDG

Structure (SMILES) | IC50 (HEK293; [3]) [µM] | IC50 (HEK293; [4]) [µM] | also measured
CCOc1ccc(-c2nnc([C@H]3C[C@H](NC(=O)c4ccc[n+]([O-])c4)C3)n2-c2ccccc2F)nc1 [Example 18, 3-((trans-3-(5-(5-ethoxypyridin-2-yl)-4-(2-fluorophenyl)-4H-1,2,4-triazol-3-yl)cyclobutyl)carbamoyl)pyridine 1-oxide] | > 10 | > 10 | 
CCOc1ccc(-c2nnc([C@H]3C[C@H](NC(=O)c4cccc(C(=O)N5CCC5)n4)C3)n2-c2ccccc2F)nc1 [Example 10, 6-(azetidine-1-carbonyl)-N-(trans-3-(5-(5-ethoxypyridin-2-yl)-4-((S)-2-fluorophenyl)-4H-1,2,4-triazol-3-yl)cyclobutyl)picolinamide] |  |  | IC50 (HEK293; [5]): 0.041 µM; IC50 (HEK293; [6]): 0.041 µM
CCOc1ccc(-c2nnc([C@H]3C[C@H](NC(=O)c4cccc5[nH]c(=O)ccc45)C3)n2-c2ccccc2F)nc1 [Example 13, N-(trans-3-(5-(5-ethoxypyridin-2-yl)-4-(2-fluorophenyl)-4H-1,2,4-triazol-3-yl)cyclobutyl)-2-oxo-1,2-dihydroquinoline-5-carboxamide] | > 10 | > 10 | 
CCOc1ccc(-c2nnc([C@H]3C[C@H](NC(=O)c4cccc5cc(O)ccc45)C3)n2-c2ccccc2F)nc1 [Example 12] | > 10 | > 10 | 
CCOc1ccc(-c2nnc([C@H]3C[C@H](NC(=O)c4cc[n+]([O-])c5cc(F)cnc45)C3)n2-c2ccccc2F)nc1 [Example 29, 4-((trans-3-(5-(5-ethoxypyridin-2-yl)-4-(2-fluorophenyl)-4H-1,2,4-triazol-3-yl)cyclobutyl)carbamoyl)-7-fluoro-1,5-naphthyridine 1-oxide] | 0.0028 | 0.0028 | 
CCOc1ccc(-c2nnc([C@H]3C[C@H](NC(=O)c4cccc5nccnc45)C3)n2-c2ccccc2F)[n+]([O-])c1 [Example 5, 5-ethoxy-2-(4-(2-fluorophenyl)-5-((1r,3R)-3-(quinoxaline-5-carboxamido)cyclobutyl)-4H-1,2,4-triazol-3-yl)pyridine 1-oxide] |  |  | IC50 (HEK293; HEK293; read-out: Cellular IC50 HEK293): 0.00075 µM; MLM Clint average [1, 7]: 15 μl/min/mg protein; MLM t1/2 average [1, 7]: >90 min; IC50 (TNKS2; [8]): 0.0013 µM; HLM Clint average [2, 7]: 8 μl/min/mg protein; HLM t1/2 average [2, 7]: >90 min
CCOc1ccc(-c2nnc([C@H]3C[C@H](NC(=O)c4cccc5nccnc45)C3)n2-c2ccccc2F)nc1 [Example 154 of WO 2019/243822, reference compound] |  |  | IC50 (HEK293; [6]): 0.00053 µM; clearance in MLM (in words) [1]: high clearance; microsomal CLint at 1 μM [1, 9]: 81 µL/min/mg; half-life at 1 μM ([1]; pH 7.4, 1 μM compound, 0.5 mg/ml microsomal protein, 37° C., read-out: MLM t1/2 average): 17 min; IC50 (TNKS2; [8]): 0.0018 µM; clearance in HLM (in words) [2]: moderate clearance; microsomal CLint at 1 μM [2, 9]: 40 µL/min/mg; half-life at 1 μM ([2]; pH 7.4, 1 μM compound, 0.5 mg/ml microsomal protein, 37° C., read-out: HLM t1/2 average): 35 min
CCOc1ccc(-c2nnc([C@H]3C[C@H](NC(=O)c4cc[n+]([O-])c5cccnc45)C3)n2-c2ccccc2F)nc1 [Example 26, 4-((trans-3-(5-(5-ethoxypyridin-2-yl)-4-(2-fluorophenyl)-4H-1,2,4-triazol-3-yl)cyclobutyl)carbamoyl)-1,5-naphthyridine 1-oxide] | 0.0014 | 0.0014 | IC50 (TNKS2; [8]): 0.0026 µM
CCOc1ccc(-c2nnc([C@H]3C[C@H](NC(=O)c4cccc5c4ccc[n+]5[O-])C3)n2-c2ccccc2F)nc1 [Example 25, 5-((trans-3-(5-(5-ethoxypyridin-2-yl)-4-(2-fluorophenyl)-4H-1,2,4-triazol-3-yl)cyclobutyl)carbamoyl)quinoline 1-oxide] |  |  | IC50 (HEK293; [5]): 10 µM; IC50 (HEK293; [6]): 9.96 µM; IC50 (TNKS2): 0.978 µM
CCOc1ccc(-c2nnc([C@H]3C[C@H](NC(=O)c4cccc5c(N(C)C)ccnc45)C3)n2-c2ccccc2F)nc1 [Example 22] | 0.015 | 0.015 | IC50 (TNKS2; [8]): 0.0021 µM
CCOc1ccc(-c2nnc([C@H]3C[C@H](NC(=O)c4cc[n+]([O-])cc4)C3)n2-c2ccccc2F)nc1 [Example 19, 4-((trans-3-(5-(5-ethoxypyridin-2-yl)-4-(2-fluorophenyl)-4H-1,2,4-triazol-3-yl)cyclobutyl)carbamoyl)pyridine 1-oxide] | 0.034 | 0.034 | 
CCOc1ccc(-c2nnc([C@H]3C[C@H](NC(=O)c4cccc5cc(O)cnc45)C3)n2-c2ccccc2F)nc1 [Example 23, N-(trans-3-(5-(5-ethoxypyridin-2-yl)-4-(2-fluorophenyl)-4H-1,2,4-triazol-3-yl)cyclobutyl)-3-hydroxyquinoline-8-carboxamide] | 0.0036 | 0.0036 | IC50 (TNKS2; [8]): 0.0013 µM
CCOc1ccc(-c2nnc([C@H]3C[C@H](NC(=O)c4cccc(N)n4)C3)n2-c2ccccc2F)nc1 [Example 20, 6-amino-N-(trans-3-(5-(5-ethoxypyridin-2-yl)-4-(2-fluorophenyl)-4H-1,2,4-triazol-3-yl)cyclobutyl)picolinamide] | 0.027 | 0.027 | IC50 (TNKS2; [8]): 0.0072 µM
CCOc1ccc(-c2nnc([C@H]3C[C@H](NC(=O)c4ccc5cccc(O)c5n4)C3)n2-c2ccccc2F)nc1 [Example 21, N-(trans-3-(5-(5-ethoxypyridin-2-yl)-4-(2-fluorophenyl)-4H-1,2,4-triazol-3-yl)cyclobutyl)-8-hydroxyquinoline-2-carboxamide] | 0.072 | 0.072 | IC50 (TNKS2; [8]): 0.0125 µM
CCOc1ccc(-c2nnc([C@H]3C[C@H](NC(=O)c4cccc5c4nc(C)c(C)[n+]5[O-])C3)n2-c2ccccc2F)nc1 [Example 24, 5-((trans-3-(5-(5-ethoxypyridin-2-yl)-4-(2-fluorophenyl)-4H-1,2,4-triazol-3-yl)cyclobutyl)carbamoyl)-2,3-dimethylquinoxaline 1-oxide] |  |  | IC50 (HEK293; [5]): 0.0037 µM; IC50 (HEK293; [6]): 0.0037 µM
CCOc1ccc(-c2nnc([C@H]3C[C@H](NC(=O)c4cc[n+]([O-])c5cc(O)cnc45)C3)n2-c2ccccc2F)nc1 [Example 27, 4-((trans-3-(5-(5-ethoxypyridin-2-yl)-4-(2-fluorophenyl)-4H-1,2,4-triazol-3-yl)cyclobutyl)carbamoyl)-7-hydroxy-1,5-naphthyridine 1-oxide] |  |  | IC50 (HEK293; [5]): 0.022 µM; IC50 (HEK293; [6]): 0.022 µM; IC50 (TNKS2): 0.0017 µM
CCOc1ccc(-c2nnc([C@H]3C[C@H](NC(=O)c4cccc(=O)[nH]4)C3)n2-c2ccccc2F)nc1 [Example 11, N-(trans-3-(5-(5-ethoxypyridin-2-yl)-4-(2-fluorophenyl)-4H-1,2,4-triazol-3-yl)cyclobutyl)-6-oxo-1,6-dihydropyridine-2-carboxamide] | 2.8 | 2.77 | 
CCOc1ccc(-c2nnc([C@H]3C[C@H](NC(=O)c4cccc(C(=O)N(C)C)n4)C3)n2-c2ccccc2F)nc1 [Example 9] | 0.19 | 0.187 | 
CCOc1ccc(-c2nnc([C@H]3C[C@H](NC(=O)c4cccc5c(O)ccnc45)C3)n2-c2ccccc2F)nc1 [Example 14, N-(trans-3-(5-(5-ethoxypyridin-2-yl)-4-(2-fluorophenyl)-4H-1,2,4-triazol-3-yl)cyclobutyl)-4-hydroxyquinoline-8-carboxamide] | 0.0085 | 0.0085 | 
CCOc1ccc(-c2nnc([C@H]3C[C@H](NC(=O)c4cc[n+]([O-])c5cc(OC)cnc45)C3)n2-c2ccccc2F)nc1 [Example 28, 4-((trans-3-(5-(5-ethoxypyridin-2-yl)-4-(2-fluorophenyl)-4H-1,2,4-triazol-3-yl)cyclobutyl)carbamoyl)-7-methoxy-1,5-naphthyridine 1-oxide] |  |  | IC50 (HEK293; [5]): 0.0012 µM; IC50 (HEK293; [6]): 0.0012 µM; IC50 (TNKS2): 0.0035 µM
CCOc1ccc(-c2nnc([C@H]3C[C@H](NC(=O)c4cccc(C(=O)NC)n4)C3)n2-c2ccccc2F)nc1 [Example 8, N2-(trans-3-(5-(5-ethoxypyridin-2-yl)-4-((S)-2-fluorophenyl)-4H-1,2,4-triazol-3-yl)cyclobutyl)-N6-methylpyridine-2,6-dicarboxamide] | 0.021 | 0.021 | 
CCOc1ccc(-c2nnc([C@H]3C[C@H](NC(=O)c4cccc(C(N)=O)n4)C3)n2-c2ccccc2F)nc1 [Example 7, N-(trans-3-(5-(5-ethoxypyridin-2-yl)-4-(2-fluorophenyl)-4H-1,2,4-triazol-3-yl)cyclobutyl)pyridine-2,6-dicarboxamide] | 0.07 | 0.07 | 
CCOc1ccc(-c2nnc([C@H]3C[C@H](NC(=O)c4cccc(S(N)(=O)=O)c4)C3)n2-c2ccccc2F)nc1 [Example 16, N-(trans-3-(5-(5-ethoxypyridin-2-yl)-4-(2-fluorophenyl)-4H-1,2,4-triazol-3-yl)cyclobutyl)-3-sulfamoylbenzamide] | 2.3 | 2.26 | 
CCOc1ccc(-c2nnc([C@H]3C[C@H](NC(=O)c4cccc(O)c4)C3)n2-c2ccccc2F)nc1 [Example 15, N-(trans-3-(5-(5-ethoxypyridin-2-yl)-4-(2-fluorophenyl)-4H-1,2,4-triazol-3-yl)cyclobutyl)-3-hydroxybenzamide] | 0.13 | 0.13 | 
